≈ marks a conversion by molar mass, not a printed value. Read-outs that look alike come from different tables or passages of the source.
Tests used:
C. parapsilosis = assay: Antifungal Activity Assay (broth microtiter MIC), C. parapsilosis; assay type: cell-based, Candida parapsilosis; settings: Lodderomyces parapsilosis, ATCC22019, 48 h, ATCC 22019, 3 replicates, MIC recorded at 48 h, read-out: MIC, C. parapsilosis ATCC 22019
Procedure, shortened: (§1)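 CLSI M27-A3 microdilution; RPMI 1640+MOPS; 2.5×10^3 CFU/mL final inoculum; cultures from Sabouraud dextrose agar, 35° C overnight; compound working solution 128 μg/mL from 1 mg/mL DMSO stock; visual MIC at 48 h vs growth control.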

Rhizoctonia solani (Rs) = assay: Growth inhibition assay of fungal pathogens, Rs; assay type: cell-based; settings: 48 h, mycelial plugs, read-out: Concentration at 90% Inhibition Rs
human (hACC2) = human (hACC2) (Homo sapiens, UniProt O00763); assay: In vitro ACC inhibition assay (ADP-Glo), hACC2; assay type: biochemical; settings: 5 nM ACC2, 20 μM ATP, 20 μM acetyl-CoA
Protocol: The detailed procedure is as follows. […] 10 μL ADP glo reagent was added. […] 20 μL kinase detection reagent was added.

[1] = test system: Fusarium virguliforme (Fv); assay: Growth inhibition assay of fungal pathogens, Fv; assay type: cell-based; settings: 48 h, read-out: Concentration at 90% Inhibition Fv
Procedure, shortened: (§2)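 Percent inhibition derived at 48 hours from OD600 and visual scores versus 2% DMSO control, with media+DMSO blank as background. Spore inocula in 17% V8 medium were sized from 48 h growth curves; compounds tested at final 50/10/2 or 2/0.4/0.08 ppm.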

[2] = test system: Collectotrichum graminicola (Cg); assay: Growth inhibition assay of fungal pathogens, Cg; assay type: cell-based; settings: 48 h, Collectotrichum graminicola, read-out: Concentration at 90% Inhibition Cg
Procedure, shortened: as §2

C. krusei = assay: Antifungal Activity Assay (broth microtiter MIC), C. krusei; assay type: cell-based, Candida krusei; settings: Pichia kudriavzevii, ATCC6258, 48 h, ATCC 6258, 3 replicates, MIC recorded at 48 h, read-out: MIC, C. krusei ATCC 6258
Procedure, shortened: as §1

Diplodia maydis (Dm) = assay: Growth inhibition assay of fungal pathogens, Dm; assay type: cell-based; settings: Stenocarpella maydis, 48 h, Diplodia maydis, read-out: Concentration at 90% Inhibition Dm
Procedure, shortened: as §2

[3] = test system: Fusarium moniliforme (Fm); assay: Growth inhibition assay of fungal pathogens, Fm; assay type: cell-based; settings: Fusarium verticillioides, 48 h, Fusarium moniliforme, read-out: Concentration at 90% Inhibition Fm
Procedure, shortened: as §2

Septoria tritici (St) = assay: Growth inhibition assay of fungal pathogens, St; assay type: cell-based; settings: Zymoseptoria tritici, 48 h, Septoria tritici, read-out: Concentration at 90% Inhibition St
Procedure, shortened: as §2

[4] = test system: Phytophthora capsici (Pc); assay: Growth inhibition assay of fungal pathogens, Pc; assay type: cell-based; settings: 48 h, read-out: Concentration at 90% Inhibition Pc
Procedure, shortened: as §2

C. albicans = assay: Antifungal Activity Assay (broth microtiter MIC), C. albicans; assay type: cell-based, Candida albicans; settings: Candida albicans, ATCC90028, 48 h, ATCC 90028, 3 replicates, MIC recorded at 48 h, read-out: MIC, C. albicans ATCC 90028
Procedure, shortened: as §1

[5] = growth inhibition at 48 hours vs 2% DMSO control
[6] = growth inhibition vs 2% DMSO control at 48 hours

human (hACC2), sequence (O00763 whole entry): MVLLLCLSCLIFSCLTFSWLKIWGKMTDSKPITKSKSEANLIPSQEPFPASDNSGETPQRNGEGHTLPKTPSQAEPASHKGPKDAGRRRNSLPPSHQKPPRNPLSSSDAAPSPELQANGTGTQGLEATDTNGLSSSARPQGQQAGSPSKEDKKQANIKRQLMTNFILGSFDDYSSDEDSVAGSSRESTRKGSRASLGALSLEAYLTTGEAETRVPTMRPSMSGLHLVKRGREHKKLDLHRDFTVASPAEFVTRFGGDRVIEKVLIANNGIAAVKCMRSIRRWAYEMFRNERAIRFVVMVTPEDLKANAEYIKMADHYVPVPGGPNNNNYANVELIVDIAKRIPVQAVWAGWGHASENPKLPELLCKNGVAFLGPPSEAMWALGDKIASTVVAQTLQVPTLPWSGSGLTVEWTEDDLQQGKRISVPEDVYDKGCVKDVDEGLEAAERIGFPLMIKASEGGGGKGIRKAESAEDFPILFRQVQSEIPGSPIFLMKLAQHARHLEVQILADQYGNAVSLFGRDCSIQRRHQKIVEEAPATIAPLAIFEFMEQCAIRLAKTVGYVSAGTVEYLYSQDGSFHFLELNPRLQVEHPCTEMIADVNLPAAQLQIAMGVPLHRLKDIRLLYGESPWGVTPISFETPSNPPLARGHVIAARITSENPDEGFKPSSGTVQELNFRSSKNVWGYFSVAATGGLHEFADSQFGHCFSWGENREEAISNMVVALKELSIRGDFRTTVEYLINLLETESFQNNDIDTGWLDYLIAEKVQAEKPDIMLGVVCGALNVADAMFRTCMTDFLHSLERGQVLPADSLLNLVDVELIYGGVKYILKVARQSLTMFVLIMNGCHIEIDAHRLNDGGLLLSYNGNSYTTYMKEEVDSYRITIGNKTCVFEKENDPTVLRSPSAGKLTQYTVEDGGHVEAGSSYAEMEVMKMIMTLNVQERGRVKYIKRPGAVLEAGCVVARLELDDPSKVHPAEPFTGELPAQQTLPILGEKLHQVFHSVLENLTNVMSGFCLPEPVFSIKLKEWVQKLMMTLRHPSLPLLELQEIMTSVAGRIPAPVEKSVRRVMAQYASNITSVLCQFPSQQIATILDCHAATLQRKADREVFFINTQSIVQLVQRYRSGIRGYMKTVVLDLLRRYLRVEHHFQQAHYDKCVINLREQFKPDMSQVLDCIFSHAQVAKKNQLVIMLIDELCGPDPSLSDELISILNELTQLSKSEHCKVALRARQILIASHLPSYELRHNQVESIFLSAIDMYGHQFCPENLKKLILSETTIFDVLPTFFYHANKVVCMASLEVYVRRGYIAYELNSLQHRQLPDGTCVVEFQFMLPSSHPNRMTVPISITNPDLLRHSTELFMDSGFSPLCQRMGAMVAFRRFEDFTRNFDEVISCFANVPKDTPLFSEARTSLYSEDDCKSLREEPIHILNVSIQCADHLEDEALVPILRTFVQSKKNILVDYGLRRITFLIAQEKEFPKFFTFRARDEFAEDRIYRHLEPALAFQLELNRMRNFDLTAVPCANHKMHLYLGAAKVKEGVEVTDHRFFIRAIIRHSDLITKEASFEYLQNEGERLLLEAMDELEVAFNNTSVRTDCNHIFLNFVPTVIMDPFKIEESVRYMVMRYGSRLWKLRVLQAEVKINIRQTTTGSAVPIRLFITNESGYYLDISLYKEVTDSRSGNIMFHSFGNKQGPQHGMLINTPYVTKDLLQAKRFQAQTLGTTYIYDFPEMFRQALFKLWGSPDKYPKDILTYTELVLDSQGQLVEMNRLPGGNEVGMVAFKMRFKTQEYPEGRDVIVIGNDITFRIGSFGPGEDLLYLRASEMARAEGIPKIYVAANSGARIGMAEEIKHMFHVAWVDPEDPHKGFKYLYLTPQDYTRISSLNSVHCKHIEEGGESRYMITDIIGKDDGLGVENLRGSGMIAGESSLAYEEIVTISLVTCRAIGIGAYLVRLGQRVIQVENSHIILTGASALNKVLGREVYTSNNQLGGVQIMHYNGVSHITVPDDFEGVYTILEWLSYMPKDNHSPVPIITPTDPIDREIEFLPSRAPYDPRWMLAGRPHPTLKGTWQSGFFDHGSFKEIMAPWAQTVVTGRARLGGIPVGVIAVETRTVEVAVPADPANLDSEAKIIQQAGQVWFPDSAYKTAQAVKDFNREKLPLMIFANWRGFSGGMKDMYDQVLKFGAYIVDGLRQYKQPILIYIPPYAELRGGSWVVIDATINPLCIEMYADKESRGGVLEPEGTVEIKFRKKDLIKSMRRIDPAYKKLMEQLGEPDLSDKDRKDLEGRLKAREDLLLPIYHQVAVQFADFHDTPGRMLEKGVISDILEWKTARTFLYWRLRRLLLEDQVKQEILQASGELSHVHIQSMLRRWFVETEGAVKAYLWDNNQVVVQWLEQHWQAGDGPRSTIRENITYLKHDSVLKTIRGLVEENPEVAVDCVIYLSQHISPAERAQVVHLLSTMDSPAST

`COCCOc1ccc(F)cc1[C@H](Cn1c(=O)n(C(C)(C)C(=O)NC(C)C)c(=O)c2c(C)c(-n3nccn3)sc21)OC(C)C` [Compound I-54, (R)-2-(1-(2-(5-fluoro-2-(2-methoxyethoxy)phenyl)-2-isopropoxyethyl)-5-methyl-2,4-dioxo-6-(2H-1,2,3-triazol-2-yl)-1,4-dihydrothieno[2,3-d]pyrimidin-3(2H)-yl)-N-isopropyl-2-methylpropanamide] gave an MIC (C. parapsilosis; Table 3a) of 0.25 to 1 µg/mL (≈ 0.396 to 1.59 µM), an MIC (C. parapsilosis; Table 3b (additional results)) of 1.01 to 2 µg/mL (≈ 1.6 to 3.17 µM) and an IC90 (Rhizoctonia solani (Rs); [5]) of 0.4 µg/mL (≈ 0.634 µM). The IC90 (Rhizoctonia solani (Rs); [6]) was 0.4 µg/mL (≈ 0.634 µM), the IC50 (human (hACC2); Table 2a) was 0.01 to 0.04 µM and the IC50 (human (hACC2); Table 2b, additional results) was 0.01 to 0.04 µM. For the same compound, the IC90 [1, 5] was 0.4 µg/mL (≈ 0.634 µM), the IC90 [1, 6] was 0.4 µg/mL (≈ 0.634 µM) and the IC90 [2, 5] was 0.4 µg/mL (≈ 0.634 µM). It also gave an IC90 [2, 6] of 0.4 µg/mL (≈ 0.634 µM), an MIC (C. krusei; Table 3a) of 0.25 to 1 µg/mL (≈ 0.396 to 1.59 µM) and an MIC (C. krusei; Table 3b (additional results)) of 0.25 to 1 µg/mL (≈ 0.396 to 1.59 µM). For the same compound, the IC90 (Diplodia maydis (Dm); [5]) was 0.08 µg/mL (≈ 0.127 µM), the IC90 (Diplodia maydis (Dm); [6]) was 0.08 µg/mL (≈ 0.127 µM) and the IC90 [3, 5] was 0.08 µg/mL (≈ 0.127 µM). For the same compound, the IC90 [3, 6] was 0.08 µg/mL (≈ 0.127 µM), the IC90 (Septoria tritici (St); [5]) was greater than 50 µg/mL and the IC90 (Septoria tritici (St); [6]) was greater than 50 µg/mL. It also gave an IC90 [4, 5] greater than 50 µg/mL, an IC90 [4, 6] greater than 50 µg/mL and an MIC (C. albicans; Table 3a) of 0.25 to 1 µg/mL (≈ 0.396 to 1.59 µM). The MIC (C. albicans; Table 3b (additional results)) was 0.25 to 1 µg/mL (≈ 0.396 to 1.59 µM).
`Cc1c(-n2nccn2)sc2c1c(=O)n(C(C)(C)C(=O)NC(C)C)c(=O)n2C[C@H](OC(C)C)c1cc(F)ccc1OCC1COC1` [Compound I-55, (R)-2-(1-(2-(5-fluoro-2-(oxetan-3-ylmethoxy)phenyl)-2-isopropoxyethyl)-5-methyl-2,4-dioxo-6-(2H-1,2,3-triazol-2-yl)-1,4-dihydrothieno[2,3-d]pyrimidin-3(2H)-yl)-N-isopropyl-2-methylpropanamide] was tested, and the MIC (C. parapsilosis; Table 3a) was 0.25 to 1 µg/mL (≈ 0.389 to 1.56 µM), the MIC (C. parapsilosis; Table 3b (additional results)) was 1.01 to 2 µg/mL (≈ 1.57 to 3.11 µM) and the IC90 (Rhizoctonia solani (Rs); [5]) was 0.4 µg/mL (≈ 0.622 µM). For the same compound, the IC90 (Rhizoctonia solani (Rs); [6]) was 0.4 µg/mL (≈ 0.622 µM), the IC50 (human (hACC2); Table 2a) was 0.01 to 0.04 µM and the IC50 (human (hACC2); Table 2b, additional results) was 0.01 to 0.04 µM. The IC90 [1, 5] was 0.4 µg/mL (≈ 0.622 µM), the IC90 [1, 6] was 0.4 µg/mL (≈ 0.622 µM) and the IC90 [2, 5] was 0.4 µg/mL (≈ 0.622 µM). It also gave an IC90 [2, 6] of 0.4 µg/mL (≈ 0.622 µM), an MIC (C. krusei; Table 3a) of 0.25 to 1 µg/mL (≈ 0.389 to 1.56 µM) and an MIC (C. krusei; Table 3b (additional results)) of 1.01 to 2 µg/mL (≈ 1.57 to 3.11 µM). It also gave an IC90 (Diplodia maydis (Dm); [5]) of 0.4 µg/mL (≈ 0.622 µM), an IC90 (Diplodia maydis (Dm); [6]) of 0.4 µg/mL (≈ 0.622 µM) and an IC90 [3, 5] of 0.08 µg/mL (≈ 0.124 µM). It also gave an IC90 [3, 6] of 0.08 µg/mL (≈ 0.124 µM), an IC90 (Septoria tritici (St); [5]) greater than 50 µg/mL and an IC90 (Septoria tritici (St); [6]) greater than 50 µg/mL. The IC90 [4, 5] was greater than 50 µg/mL, the IC90 [4, 6] was greater than 50 µg/mL and the MIC (C. albicans; Table 3a) was 0.25 to 1 µg/mL (≈ 0.389 to 1.56 µM). The MIC (C. albicans; Table 3b (additional results)) was 1.01 to 2 µg/mL (≈ 1.57 to 3.11 µM).
